Experimental data published in the supplement of paper PMC11208160.

Test: recombinant barcode read abundance after kanamycin selection (control-corrected) (log10(CPM+1)); higher = more efficient recombination; sequences stand for … in AGTGCAGAGAAAATCGGCCAGTTTTCTCTGCCTGCAGTCCGCATGCCGT…AGATTTATGCAGCGGACTGCCTTTCTCCCAAAGTGATAAACCGGACAGTATCATGGACCGGTTTTCCCGGTAATCCGTATTTGCAAGGTTGGTTTCACT; site = the 11-nt target
Outline: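 A promoter, a target, a barcode and the first 104 bridge RNA bases under J23119 made up each oligo. Oligos were Gibson-cloned into a vector bearing the other 73 bp and a T7-inducible recombinase, then co-electroporated into E. coli with a donor plasmid and plated in duplicate on chloramphenicol/ampicillin LB agar (control) or chloramphenicol/ampicillin/kanamycin with 0.1 mM IPTG. Recombination efficiency is the averaged, control-corrected counts per million of recombinant-junction barcodes. Reported values are log10(CPM+1).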
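Also: IS621 recombinase and bridge RNA in Escherichia coli cells.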

Sequence	recombinant barcode read abundance (log10)
ATTTGCACTTGGGTTCTAACCTGTTGCCT (site ATTTGGACTAG)	0.0348
ATTTGCACTTGGGTTCTAACCTGTTGCCT (site ATTTGTACTAG)	0.0454
ATTTGTACTTGGGTTCTAACCTGTTGCCT (site ATTTGAACTAG)	0.0288
ATTTGTACTTGGGTTCTAACCTGTTGCCT (site ATTTGCACTAG)	0.0709
ATTTGTACTTGGGTTCTAACCTGTTGCCT (site ATTTGGACTAG)	0
ATTTGTACTTGGGTTCTAACCTGTTGCCT (site ATTTGTACTAG)	0.293
CAAACACCTTGGGTTCTAACCTGTTGCCT (site CAAACAACTAG)	0.0738
CAAACACCTTGGGTTCTAACCTGTTGCCT (site CAAACACCTAG)	1.46
CAAACACCTTGGGTTCTAACCTGTTGCCT (site CAAACAGCTAG)	0.682
CAAACACCTTGGGTTCTAACCTGTTGCCT (site CAAACATCTAG)	0.287
CAAACTACTTGGGTTCTAACCTGTTGCAC (site CAAACTACTGT)	0.556
CAAACTACTTGGGTTCTAACCTGTTGCAC (site CAAACTACTTA)	0.0177
CAAAGGGCTTGGGTTCTAACCTGTTGCAG (site CAAAAGGCTCT)	1.17
CAAAGGGCTTGGGTTCTAACCTGTTGCAG (site CAAAGGGCTCT)	2.29
CAAAGTCCTTGGGTTCTAACCTGTTGCCT (site CAAAGTCCTAA)	0.013
CAAAGTCCTTGGGTTCTAACCTGTTGCCT (site CAAAGTCCTAC)	0.0449
CAAAGTCCTTGGGTTCTAACCTGTTGCCT (site CAAAGTCCTAG)	1.12
CAAAGTCCTTGGGTTCTAACCTGTTGCCT (site CAAAGTCCTAT)	0.0828
CAAAGTCCTTGGGTTCTAACCTGTTGCTT (site CAAAGTCCTAA)	0.437
CAAAGTCCTTGGGTTCTAACCTGTTGCTT (site CAAAGTCCTAC)	0.174
CAAAGTCCTTGGGTTCTAACCTGTTGCTT (site CAAAGTCCTAG)	0.152
CAAAGTCCTTGGGTTCTAACCTGTTGCTT (site CAAAGTCCTAT)	0.429

Sequence	recombinant barcode read abundance (log10)
CAACCGGCTTGGGTTCTAACCTGTTGCCT (site CAACCGACTAG)	0.0354
CAACCGGCTTGGGTTCTAACCTGTTGCCT (site CAACCGCCTAG)	0.255
CAACCGGCTTGGGTTCTAACCTGTTGCCT (site CAACCGGCTAG)	0.986
CAACCGGCTTGGGTTCTAACCTGTTGCCT (site CAACCGTCTAG)	0.111
CAAGGGCCTTGGGTTCTAACCTGTTGCCT (site CAAAGGCCTAG)	0.423
CAAGGGCCTTGGGTTCTAACCTGTTGCCT (site CAACGGCCTAG)	0.0504
CAAGGGCCTTGGGTTCTAACCTGTTGCCT (site CAAGGGCCTAG)	0.701
CAAGGGCCTTGGGTTCTAACCTGTTGCCT (site CAATGGCCTAG)	0.375
CAAGTAGCTTGGGTTCTAACCTGTTGCCT (site CAAGTAGCTAG)	0.591
CAAGTAGCTTGGGTTCTAACCTGTTGCCT (site CAAGTCGCTAG)	0.123
CAAGTAGCTTGGGTTCTAACCTGTTGCCT (site CAAGTGGCTAG)	0.183
CAAGTAGCTTGGGTTCTAACCTGTTGCCT (site CAAGTTGCTAG)	0.0368
CAATAGACTTGGGTTCTAACCTGTTGCCT (site CAATAGACTAG)	1.19
CAATAGACTTGGGTTCTAACCTGTTGCCT (site TGCACCTCTTA)	0.0564
CAATCACCTTGGGTTCTAACCTGTTGCTT (site CAAACACCTAA)	0.109
CAATCACCTTGGGTTCTAACCTGTTGCTT (site CAACCACCTAA)	0.461
CAATCACCTTGGGTTCTAACCTGTTGCTT (site CAAGCACCTAA)	0.027
CAATCACCTTGGGTTCTAACCTGTTGCTT (site CAATCACCTAA)	0.794
CAATCCTCTTGGGTTCTAACCTGTTGCTT (site CAATCCTCTAA)	0.664
CAATCCTCTTGGGTTCTAACCTGTTGCTT (site CCATCCTCTAA)	0
CAATCGTCTTGGGTTCTAACCTGTTGCGG (site CAATCGTCTCC)	1.68
